From patent US11766414B2, “Compositions, delivery systems, and methods useful in tumor therapy” (Indi Molecular, Inc., priority 2020, dated 2023) come the findings set out here.

Where two headings read alike, the source gives them in different places. Starred links: 1 amine or outer side, 2 acyl side, 3 side chain; linkers in the order of their positions; H or OH if unused. Positions of bridges follow the written chain, without caps; N, C: chain ends. Non-standard residues stand in square brackets, D forms with d. Residues, ends and D or L forms follow the SMILES beside them. Triazole bridges read from a SMILES are 1,4-linked. *: point of attachment. DOTA = O=C(O)CN1CCN(CC(=O)O)CCN(CC(=O)*)CCN(CC(=O)O)CC1; Pteroyl = Nc1nc2ncc(CNc3ccc(C(=O)*)cc3)nc2c(=O)[nH]1; Biotin = O=C1N[C@H]2[C@H](CS[C@H]2CCCCC(=O)*)N1; PEG10 = NCCOCCOCCOCCOCCOCCOCCOCCOCCOCCOCCC(=O)O; Butanoyl(4-(4-MePh)) = Cc1ccc(CCCC(=O)*)cc1; Lys(N3) = [N-]=[N+]=NCCCC[C@H](N)C(=O)O; γGlu = O=C(O)[C@H](CCC(=O)[*:2])N[*:1]; PEG7 = NCCOCCOCCOCCOCCOCCOCCOCCC(=O)O; AEEEA = NCCOCCOCCOCC(=O)O; Pra = C#CC[C@H](N)C(=O)O; X1 = NOCC(=O)*

Series [1] addresses FOLR1 (Homo sapiens, UniProt P15328). As to the kind of experiment: ELISA assay of FOLR1 binding. The source says: FIG. 5 is a diagram of ELISA assay of FOLR1 binding of heterobiligands.
Series [2] can be described thus: Plasma protein binding, CD-1 mouse plasma. In kind it is in vitro ADME. How it is done:
(§1) HTD 96 a/b regenerated cellulose membrane strips with mass cutoff of 12-14 kDa were soaked in ultra-pure water at room temperature for 1 hour. Each swelled membrane was then soaked in 20:80 ethanol:water for 20 minutes.
(§2) Just prior to the experiment, the membranes were re-soaked in ultra-pure water. Plasma was prepared by thawing under cold water. The plasma was centrifuged to remove any clots and pH was adjusted to 7.0-8.0. Test articles and control compounds were diluted to 2 μM. The dialysis device was loaded by transferring 150 μL of the test article (in triplicate) to the donor side. The dialysis device was placed in a humidified incubator at 37° C. with 5% CO2 in a shaking platform that rotated slowly for 4 hours. After incubation, 50 μL of the supernatant was taken from both sides and analyzed by LC-MS/MS.

Series [3] is described as follows: Plasma protein binding, human plasma. In kind it is in vitro ADME. How it is done:
as §1, §2

Series [4] addresses human recombinant NEP (Homo sapiens, UniProt P08473). Nature of the series: NEP enzymatic cleavage assay (MALDI, HPLC). The class given is biochemical. The conditions noted are these: for NEP-mediated cleavage: MALDI. On the procedure:
In order to test the susceptibility of GFK and MVK linkers to NEP-mediated cleavage, the peptide (Folate-hshta-Lys(MPBA)-Gly-Phe-Lys(DOTA) (SEQ ID NO:6)) was incubated with human recombinant NEP and analyzed the solution for the presence of cleaved adducts. MALDI was utilized to monitor the cleavage of a PCC heterobiligand that contains a NEP protease recognizable sequence (G-F-K). The PCC concentration was constant and the NEP concentration was titrated down from 10 nM to 1 nM, 0.1 nM, 0.01 nM, and no NEP. The NEP-mediated cleaved adduct was identified by mass. 10 μM PCC containing the GFK linker was combined with varying amounts of NEP. […] Below 0.1 nM no cleavage was observed. • Folate-hshta-Lys(MPBA)-Gly-Phe-Lys(DOTA) (SEQ ID NO:6) • Molecular weight 2231.42
The NEP-mediated cleavage was also monitored by HPLC. In agreement with the MALDI spectra, the HPLC chromatograms show depletion of the parent brush-border heterobiligand (retention time 17.1 minutes), dose-dependent on the amount of NEP spiked into the sample (10 nM, 1 nM, 0.1 nM, 0.01 nM, and no NEP). An appearance of a new peak (retention time 16.5 minutes) in concert with the depletion of the starting material is presumed to be the cleaved folate-containing peptide.
In order to test the specificity of NEP, a non-cleavable linker (PEG3) was also assayed.
To reduce the radioactive dose to the kidney, Indi ^177Lu-7327 was constructed to incorporate a GFK linker that is susceptible to cleavage by enzymes found predominately in the kidney's brush border. These enzymes cleave off the radionuclide-chelator complex, which is quickly eliminated by the kidney for excretion in the urine. The zinc metalloprotease neprilysin (NEP) is expressed with high abundance in the kidney. […] To confirm NEP-mediated cleavage of the GFK linker in Indi 7327, the peptide was incubated with recombinant human NEP at 37° C. for 1 h and analyzed by matrix-assisted laser desorption/ionization mass spectrometry (MALDI-MS) for the evolution of cleaved adducts (FIG. 42). […] The expected cleaved adduct (mass: 1283.16 m/z) appears in the samples containing 10, 1.0, and 0.1 nM NEP. […] Below 0.1 nM NEP, no cleavage was observed. In addition to confirming the selectivity of NEP for the GFK linker, it is also important to note that the remaining portions of the Indi 7327 were impervious to the enzyme.

Sequence of FOLR1 (P15328 25-234): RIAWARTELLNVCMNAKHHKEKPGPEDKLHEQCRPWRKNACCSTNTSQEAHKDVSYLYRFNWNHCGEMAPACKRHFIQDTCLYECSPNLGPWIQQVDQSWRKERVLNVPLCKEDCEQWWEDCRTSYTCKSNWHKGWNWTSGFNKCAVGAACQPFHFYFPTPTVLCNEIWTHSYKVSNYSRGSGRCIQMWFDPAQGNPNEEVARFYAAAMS
Sequence of human recombinant NEP (P08473 whole entry): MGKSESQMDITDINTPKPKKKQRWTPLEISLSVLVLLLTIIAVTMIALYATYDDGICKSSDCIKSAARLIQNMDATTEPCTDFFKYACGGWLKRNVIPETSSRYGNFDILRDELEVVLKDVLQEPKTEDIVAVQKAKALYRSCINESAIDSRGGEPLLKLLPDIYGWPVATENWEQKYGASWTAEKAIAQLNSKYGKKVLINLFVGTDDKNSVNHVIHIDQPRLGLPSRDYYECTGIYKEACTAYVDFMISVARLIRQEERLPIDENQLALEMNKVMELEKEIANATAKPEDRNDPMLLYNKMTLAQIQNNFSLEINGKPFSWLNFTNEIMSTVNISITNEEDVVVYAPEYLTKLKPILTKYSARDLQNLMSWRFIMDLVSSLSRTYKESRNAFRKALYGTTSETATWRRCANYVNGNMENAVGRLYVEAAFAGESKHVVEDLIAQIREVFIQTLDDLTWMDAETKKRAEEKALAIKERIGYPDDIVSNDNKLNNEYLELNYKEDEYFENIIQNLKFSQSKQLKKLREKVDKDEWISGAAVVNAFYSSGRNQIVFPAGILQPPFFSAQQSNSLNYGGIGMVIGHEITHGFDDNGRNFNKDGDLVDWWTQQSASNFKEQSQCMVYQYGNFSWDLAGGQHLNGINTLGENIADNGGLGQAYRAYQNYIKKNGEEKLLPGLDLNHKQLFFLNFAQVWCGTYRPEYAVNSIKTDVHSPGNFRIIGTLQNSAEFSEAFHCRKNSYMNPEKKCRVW

Take `C[C@H](O)[C@H]1NC(=O)[C@@H](Cc2c[nH]cn2)NC(=O)[C@@H](CO)NC(=O)[C@@H](Cc2c[nH]cn2)NC(=O)[C@@H](NC(=O)CNC(=O)CC[C@H](NC(=O)c2ccc(NCc3cnc4nc(N)[nH]c(=O)c4n3)cc2)C(=O)O)Cc2cn(nn2)CCCC[C@@H](C(=O)NCCOCCOCCOCCOCCOCCOCCOCCOCCOCCOCCC(=O)NCCOCCOCCOCCOCCOCCOCCOCCOCCOCCOCCC(=O)N[C@@H](CCCCNC(=O)CCCC[C@@H]2SC[C@@H]3NC(=O)N[C@@H]32)C(N)=O)NC(=O)[C@@H](C)NC1=O` [Folate-Gly-hshta] ({Pteroyl-γGlu}-G[Pra][dH][dS][dH][dT][dA][Lys(N3)][PEG10][PEG10]K(Biotin)-NH2; triazole 2-8): in series [1] (read-out: EC50 (ELISA, FOLR1)), the 50% effective concentration (EC50) is 0.9 nM.

Consider `C[C@H](O)[C@H]1NC(=O)[C@@H](Cc2c[nH]cn2)NC(=O)[C@@H](CO)NC(=O)[C@@H](Cc2c[nH]cn2)NC(=O)[C@@H](NC(=O)CCOCCOCCOCCOCCOCCOCCOCCNC(=O)CC[C@H](NC(=O)c2ccc(NCc3cnc4nc(N)[nH]c(=O)c4n3)cc2)C(=O)O)Cc2cn(nn2)CCCC[C@@H](C(=O)NCCOCCOCCOCCOCCOCCOCCOCCOCCOCCOCCC(=O)NCCOCCOCCOCCOCCOCCOCCOCCOCCOCCOCCC(=O)N[C@@H](CCCCNC(=O)CCCC[C@@H]2SC[C@@H]3NC(=O)N[C@@H]32)C(N)=O)NC(=O)[C@@H](C)NC1=O` [Folate-PEG7-hshta] ({Pteroyl-γGlu-PEG7}-[Pra][dH][dS][dH][dT][dA][Lys(N3)][PEG10][PEG10]K(Biotin)-NH2; triazole 1-7), for which the EC50 in series [1] (read-out: EC50 (ELISA, FOLR1)) came to 1 nM.

Take `C[C@H](O)[C@H]1NC(=O)[C@@H](Cc2c[nH]cn2)NC(=O)[C@@H](CO)NC(=O)[C@@H](Cc2c[nH]cn2)NC(=O)[C@@H](NC(=O)[C@H]2CCCN2C(=O)CC[C@H](NC(=O)c2ccc(NCc3cnc4nc(N)[nH]c(=O)c4n3)cc2)C(=O)O)Cc2cn(nn2)CCCC[C@@H](C(=O)NCCOCCOCCOCCOCCOCCOCCOCCOCCOCCOCCC(=O)NCCOCCOCCOCCOCCOCCOCCOCCOCCOCCOCCC(=O)N[C@@H](CCCCNC(=O)CCCC[C@@H]2SC[C@@H]3NC(=O)N[C@@H]32)C(N)=O)NC(=O)[C@@H](C)NC1=O` [Folate-Pro-hshta] ({Pteroyl-γGlu}-[dP][Pra][dH][dS][dH][dT][dA][Lys(N3)][PEG10][PEG10]K(Biotin)-NH2; triazole 2-8): in series [1] (read-out: EC50 (ELISA, FOLR1)), the EC50 was 0.9 nM.

As for `C[C@H](O)[C@H]1NC(=O)[C@@H](Cc2ccc(O)cc2)NC(=O)[C@@H](CCCNC(=N)N)NC(=O)[C@@H](CCC(=O)O)NC(=O)[C@@H](CC(=O)O)NC(=O)[C@@H](NC(=O)[C@H](Cc2cn(CCOCCOCCOCCNC(=O)CC[C@H](NC(=O)c3ccc(NCc4cnc5nc(N)[nH]c(=O)c5n4)cc3)C(=O)O)nn2)NC(=O)CCOCCOCCOCCOCCOCCOCCOCCOCCOCCOCCNC(=O)CCOCCOCCOCCOCCOCCOCCOCCOCCOCCOCCNC(=O)CCCC[C@@H]2SC[C@@H]3NC(=O)N[C@@H]32)Cc2cn(nn2)CCCC[C@@H](C(N)=O)NC1=O` [Pra(Az4-PEG3-folate)-deryt], the EC50 in series [1] (read-out: EC50 (ELISA, FOLR1)) was 0.27 nM.

In the case of `C[C@H](O)[C@H]1NC(=O)[C@@H](Cc2cnc[nH]2)NC(=O)[C@@H](CO)NC(=O)[C@@H](Cc2cnc[nH]2)NC(=O)[C@@H](NC(=O)CC[C@H](NC(=O)c2ccc(NCc3cnc4nc(N)[nH]c(=O)c4n3)cc2)C(=O)O)Cc2cn(nn2)CCCC[C@@H](C(=O)NCCOCCOCCOCC(=O)N[C@@H](CCCCNC(=O)CON)C(N)=O)NC(=O)[C@@H](C)NC1=O` [compound 0328, Fol-hshta-PEG3-Lys(AO)] ({Pteroyl-γGlu}-[Pra][dH][dS][dH][dT][dA][Lys(N3)][AEEEA]K(X1)-NH2; triazole 1-7), the fraction unbound at 4 h, 2 μM in series [2] (CD-1, mouse, plasma, AO-containing constructs, (FB), read-out: Plasma % Bound, Mu) was 0.798; in series [3] (human, plasma, AO-containing constructs, (FB), read-out: Plasma % Bound, Hu), 0.57. In addition, the recovery at 4 h, 2 μM worked out at 115% in series [2] (CD-1, mouse, plasma, AO-containing constructs, (FB), read-out: Plasma protein binding % Recovery, Mu) and 85% in series [3] (human, plasma, AO-containing constructs, (FB), read-out: Plasma protein binding % Recovery, Hu).

In the case of `C[C@H](O)[C@H]1NC(=O)[C@@H](Cc2c[nH]cn2)NC(=O)[C@@H](CO)NC(=O)[C@@H](Cc2c[nH]cn2)NC(=O)[C@@H](NC(=O)CC[C@H](NC(=O)c2ccc(NCc3cnc4nc(N)[nH]c(=O)c4n3)cc2)C(=O)O)Cc2cn(nn2)CCCC[C@@H](C(=O)NCCOCCOCCOCC(=O)N[C@@H](CCCCNC(=O)CN2CCN(CC(=O)O)CCN(CC(=O)O)CCN(CC(=O)O)CC2)C(N)=O)NC(=O)[C@@H](C)NC1=O` [compound 1189, Fol-hshta-PEG3-Lys(DOTA)] ({Pteroyl-γGlu}-[Pra][dH][dS][dH][dT][dA][Lys(N3)][AEEEA]K(DOTA)-NH2; triazole 1-7), the fraction unbound in series [2] (CD-1 mouse plasma, read-out: Plasma % Bound, Mu (converted)) was 0.705; in series [3] (human, plasma, human plasma, read-out: Plasma % Bound, Hu (converted)), 0.54. For the same compound, the recovery in series [2] (CD-1 mouse plasma, read-out: Plasma protein binding % Recovery, Mu) worked out at 97.4%; in series [3] (human plasma, read-out: Plasma protein binding % Recovery, Hu), 102%.

For the compound `Cc1ccc(CCCC(=O)NCCCC[C@H](NC(=O)[C@@H]2CCCCn3cc(nn3)C[C@H](NC(=O)CC[C@H](NC(=O)c3ccc(NCc4cnc5nc(N)[nH]c(=O)c5n4)cc3)C(=O)O)C(=O)N[C@H](Cc3cnc[nH]3)C(=O)N[C@H](CO)C(=O)N[C@H](Cc3cnc[nH]3)C(=O)N[C@H]([C@H](C)O)C(=O)N[C@H](C)C(=O)N2)C(=O)NCC(=O)N[C@@H](Cc2ccccc2)C(=O)N[C@@H](CCCCNC(=O)CON)C(=O)O)cc1` [compound 3304, Fol-hshta-Lys(4-MPBA)-Gly-Phe-Lys(AO)] ({Pteroyl-γGlu}-[Pra][dH][dS][dH][dT][dA][Lys(N3)]K(Butanoyl(4-(4-MePh)))GFK(X1)-OH; triazole 1-7), in series [4] (Table 7, AO-containing constructs), the “in vitro Assay Data (NEP assay)” value is “Cleavage of —G—F—K-”.

As to `C[C@H](O)[C@H]1NC(=O)[C@@H](Cc2c[nH]cn2)NC(=O)[C@@H](CO)NC(=O)[C@@H](Cc2c[nH]cn2)NC(=O)[C@@H](NC(=O)CC[C@H](NC(=O)c2ccc(NCc3cnc4nc(N)[nH]c(=O)c4n3)cc2)C(=O)O)Cc2cn(nn2)CCCC[C@@H](C(=O)NCC(=O)N[C@@H](Cc2ccccc2)C(=O)N[C@@H](CCCCNC(=O)CN2CCN(CC(=O)O)CCN(CC(=O)O)CCN(CC(=O)O)CC2)C(=O)O)NC(=O)[C@@H](C)NC1=O` [compound 7327, folate-hshta-Gly-Phe-Lys(DOTA)] ({Pteroyl-γGlu}-[Pra][dH][dS][dH][dT][dA][Lys(N3)]GFK(DOTA)-OH; triazole 1-7), in series [4], the “site of neprilysin cleavage” value is “cleaved at the amide bond between Gly and Phe”. Besides, the NEP-mediated cleavage result in series [4] (1 nM and 0.1 nM NEP) is “partial cleavage”; in series [4] (10 nM NEP), “complete consumption of the peptide”; in series [4] (below 0.1 nM NEP), “no cleavage”. Also, the “in vitro Assay Data (NEP assay)” value in series [4] (Table 2) is “Cleavage of -G-F-K-”.

With `C[C@H](O)[C@H]1NC(=O)[C@@H](Cc2ccc(O)cc2)NC(=O)[C@@H](CCCNC(=N)N)NC(=O)[C@@H](CCC(=O)O)NC(=O)[C@@H](CC(=O)O)NC(=O)[C@@H](NC(=O)COCCOCCOCCNC(=O)CCCC[C@@H]2SC[C@@H]3NC(=O)N[C@@H]32)Cc2cn(nn2)CCCC[C@@H](C(N)=O)NC1=O` [deryt] ({Biotin-AEEEA}-[Pra][dD][dE][dR][dY][dT][Lys(N3)]-NH2; triazole 1-7), the EC50 in series [1] (PCC alone, read-out: EC50) was determined as 10000 nM.

What is called EC50 is the concentration needed to bring the measured effect to its halfway point.
